From PubChem BioAssay AID977621 (Broad Institute, 2014)
Results filed as inconclusive are left out. The source made the active and inactive calls.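 The calls were made as follows: active = Wild-type ribosome reporter drop at least double the humanized mutant ribosome reporter drop, growth loss under a set limit; inconclusive = no clear call, values can overlap the other calls; inactive = the rest.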

System: E. coli wild-type GFP strain growth, fluorescence, 24 h
Assay: growth inhibition of wild-type GFP E. coli, dose response, H69 mutant RFP, cherry-pick (AID 977621);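 also: wild-type GFP and H69 mutant RFP strains grown together 50/50 in each well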
[1] = E. coli mixed culture, 24 h, measured here: total growth OD600, test 2

Row | SMILES | AC50 | AC50 [1] [µM] | AC50 (measured here: total growth OD600, test 2) [µM]
1 | CC(C)CC#Cc1ccc2c(c1)O[C@@H](CN(C)Cc1ccccn1)[C@H](C)CN([C@H](C)CO)S2(=O)=O | > 100 µM (inactive) | – | –
2 | Cc1ccc(C(=O)NCC(=O)OCC(=O)Nc2cccc(S(=O)(=O)N3CCCC3)c2)cc1C | – | > 100 | –
3 | CC(C)N1CC2(CC(c3ccccc3C(F)(F)F)=NO2)CN1C(=O)c1ccco1 (centres undefined) | > 100 µM (inactive) | – | –
4 | Cc1cccc(-c2ccc([C@@H]3[C@@H](CO)N4CCCCN(S(=O)(=O)c5ccccc5C)C[C@H]34)cc2)c1 | – | 48.8 | –
5 | Cc1ccc(S(=O)(=O)NCc2c(-c3ccccc3)noc2C)cc1 | – | > 100 | –
6 | O=C1N[C@@H](Cc2ccccc2)COC(=O)[C@H](Cc2ccc(F)cc2)C/C=C\C[C@H]1CC(=O)N(CCO)Cc1ccccc1 | > 100 µM (inactive) | – | –
7 | Fc1ccc(-c2nnc(-c3ccc4ccccc4c3)o2)cc1 | > 100 µM (inactive) | > 100 | –
8 | CC1Cc2ccccc2N1C(=O)CN1C(=O)NC(C)(CCc2ccccc2)C1=O (centres undefined) | – | > 100 | –
9 | Cc1cc(C(=O)Nc2cccc3c2O[C@H](CN(C)S(=O)(=O)c2ccc(Cl)cc2)[C@H](C)CN([C@H](C)CO)C3=O)n(C)n1 | > 100 µM (inactive) | – | –
10 | Cc1cc(OCCCCOc2ccc(S(N)(=O)=O)c(C)c2)ccc1S(N)(=O)=O | > 100 µM (inactive) | 49.4 | –
11 | CN1CCN(c2nc(Nc3ccc(O)cc3)nc3ccccc23)CC1 | > 100 µM (inactive) | – | –
12 | O=C(CCC(=O)N1CCN(c2ccc(F)cc2)CC1)N1CCN(c2ccc(F)cc2)CC1 | > 100 µM (inactive) | > 100 | –
13 | O=C(NCc1ccc(-c2nc3ccccc3s2)cc1)c1ccco1 | > 100 µM (inactive) | – | –
14 | O=C(c1cc(C(=O)N2CCOCC2)c2nc3ccccc3n2c1)c1cc(Cl)cc(Cl)c1O | > 100 µM (inactive) | > 100 | –
15 | COc1ccccc1N(C1=NCCCS1)S(=O)(=O)c1ccc(C(C)(C)C)cc1 | > 100 µM (inactive) | – | –
16 | CC(=O)c1cccc(NC(=O)COC(=O)C2CCCN2C(=O)c2cccs2)c1 (centres undefined) | > 100 µM (inactive) | – | –
17 | O=C(NCc1nnc(SCc2ccccc2)n1-c1ccccc1)C12CC3CC(CC(C3)C1)C2 | > 100 µM (inactive) | 38.6 | –
18 | COc1ccc(NC(=O)Nc2cccc3c2O[C@@H](CN(C)S(=O)(=O)c2ccc(Cl)cc2)[C@H](C)CN([C@H](C)CO)C3=O)cc1 | > 100 µM (inactive) | – | –
19 | O=C(CN1CCN(c2ccc(O)cc2)CC1)Nc1cc(S(=O)(=O)N2CCCC2)ccc1Cl | > 100 µM (inactive) | – | –
20 | Cc1c(Cc2ccccc2)sc(NC(=O)C(C)(C)C)c1C(N)=O | > 100 µM (inactive) | 50.6 | –
21 | CCOC(=O)C(CC)Sc1cc(C)nc2ccc(OC)cc12 (centres undefined) | – | > 100 | –
22 | O=C(CC(c1ccccc1)c1cc(Br)ccc1O)N1CCCC1 (centres undefined) | > 100 µM (inactive) | 36.4 | –

Row | SMILES | AC50 | AC50 [1] [µM] | AC50 (measured here: total growth OD600, test 2) [µM]
23 | Cc1cc(NC(=O)CN2CCN(c3cccc(Cl)c3)CC2)no1 | > 100 µM (inactive) | – | –
24 | COC(=O)COc1ccc(Cl)cc1C1Nc2ccccc2C(=O)N1c1ccc(OC)cc1 (centres undefined) | > 100 µM (inactive) | > 100 | –
25 | C[C@@H]1CN([C@H](C)CO)C(=O)c2cccc(NC(=O)Nc3ccc4c(c3)OCO4)c2O[C@@H]1CN(C)C(=O)Nc1ccc2c(c1)OCO2 | – | > 100 | –
26 | CC(=O)Nc1cccc(NC(=O)CSc2ccc(-c3cccnc3)nn2)c1 | > 100 µM (inactive) | 48.7 | –
27 | CC(=O)Nc1cccc(Nc2nc(-c3ccccc3)nc3ccccc23)c1 | > 100 µM (inactive) | 5.27 | –
28 | CCc1cccc(NC(=O)CCC(=O)N2CCSc3ccccc32)c1 | > 100 µM (inactive) | 47.6 | –
29 | COc1cc2nc(Nc3ccc(F)cc3)nc(N)c2cc1OC | > 100 µM (inactive) | – | –
30 | NS(=O)(=O)c1cccc(NC(=O)CSc2nc3ccccc3n2-c2ccccc2)c1 | > 100 µM (inactive) | 40.3 | –
31 | COc1ccc(OC)c(NC(=O)COc2ccc(S(=O)(=O)NC(C)C)cc2)c1 | – | > 100 | –
32 | O=C(C[C@@H]1CC[C@@H]2[C@H](COC[C@H](O)CN2C(=O)Nc2ccc(Cl)cc2)O1)N1CCCCC1 | > 100 µM (inactive) | 46 | –
33 | COc1cc(C2CC(=O)Oc3cc(C)cc(C)c32)cc(OC)c1OC (centres undefined) | > 100 µM (inactive) | – | –
34 | O=C(Nc1ccc(Cl)cn1)c1cc2c(s1)-c1ccccc1OC2 | – | > 100 | –
35 | Cc1cc(C(=O)COC(=O)c2ccc(Br)o2)c(C)n1C | > 100 µM (inactive) | 48.4 | –
36 | Cc1ccc(NC(=O)c2c(C)noc2-c2snnc2C)cc1 | > 100 µM (inactive) | – | –
37 | O=S(=O)(Nc1cccc(-c2ccc(N3CCCCCC3)nn2)c1)c1ccc(F)cc1 | > 100 µM (inactive) | – | –
38 | COc1ccc(C(=O)COC(=O)c2ccccc2O)c(OC)c1 | > 100 µM (inactive) | – | –
39 | Cc1cc(C)c2sc(N(CCN(C)C)C(=O)c3c(F)cccc3F)nc2c1 | > 100 µM (inactive) | > 100 | –
40 | COc1ccc(CC(=O)Nc2nc(-c3cc(OC)ccc3OC)cs2)cc1 | > 100 µM (inactive) | 20.9 | –
41 | Cc1onc(-c2c(F)cccc2Cl)c1C(=O)c1ccccc1O | – | 42.4 | –
42 | O=C(Nc1cccc(Cl)c1)N1C[C@H]2[C@@H](c3ccccc31)[C@@H](CO)N2C(=O)c1ccncc1 | > 100 µM (inactive) | – | –
43 | Cc1c(C(=O)NCCSCc2cccc(C(F)(F)F)c2)cnn1-c1ccc(F)cc1 | > 100 µM (inactive) | 17.4 | –
44 | O=C(CSc1ccncc1)Nc1ccc2ccccc2c1 | > 100 µM (inactive) | 30 | –

Row | SMILES | AC50 | AC50 [1] [µM] | AC50 (measured here: total growth OD600, test 2) [µM]
45 | C[C@@H](NC(=O)C[C@@H]1CC[C@@H]2[C@H](COC[C@H](O)CN2C(=O)Nc2cccc(F)c2)O1)c1ccccc1 | > 100 µM (inactive) | – | –
46 | O=S1(=O)N[C@H](Cc2ccccc2)COc2cc(N3CCSCC3)ccc21 | – | > 100 | –
47 | COc1ccc(OCC2c3cc(OC)c(OC)cc3CCN2C(=O)C(C)C)cc1 (centres undefined) | > 100 µM (inactive) | – | –
48 | O=C(O)c1ccc(S(=O)(=O)N(Cc2ccc(F)cc2)C2CCCCC2)cc1 | > 100 µM (inactive) | 30.2 | –
49 | Oc1ccc2c3c1OC1c4oc5ccccc5c4C[C@@]4(O)[C@@H](C2)N(CC2CC2)CC[C@]314 (some centres undefined) | > 100 µM (inactive) | – | –
50 | COc1ccc(N2C(=O)C3C(C2=O)C3(c2ccccc2)c2ccccc2)cc1 (centres undefined) | > 100 µM (inactive) | – | –
51 | CSc1ccccc1NC(=O)c1ccccc1N(Cc1ccccc1)S(C)(=O)=O | – | > 100 | –
52 | Cc1ccc(NC(=O)c2ccc([N+](=O)[O-])o2)c(C)c1 | > 100 µM (inactive) | – | –
53 | COc1cccc(OC)c1OCCCOc1cccc2cccnc12 | > 100 µM (inactive) | – | –
54 | O=C(COC(=O)CCSc1ccc(F)cc1)NCc1ccc(F)cc1 | > 100 µM (inactive) | – | –
55 | COc1cccc(NS(=O)(=O)c2ccc(-c3coc(C)n3)cc2)c1 | > 100 µM (inactive) | 3.29 | –
56 | OC[C@H]1[C@H](c2ccc(-c3ccc(F)cc3)cc2)[C@@H]2CN(Cc3ccncc3)CCCCN12 | > 100 µM (inactive) | – | –
57 | Cc1n[nH]c(C)c1S(=O)(=O)N1CCCC(C(=O)Nc2ccc(Br)cc2)C1 (centres undefined) | > 100 µM (inactive) | – | –
58 | CCCNC(=O)c1cc(C2CCCN(S(=O)(=O)c3cccc4cccnc34)C2)on1 (centres undefined) | > 100 µM (inactive) | – | –
59 | Cc1ccc(C)c(N(CC(=O)NC2CCCC2)C(=O)c2oc(C(C)(C)C)cc2C)c1 | > 100 µM (inactive) | > 100 | –
60 | CC(C)Sc1sc(C(=O)O)c(-c2ccc(Cl)cc2)c1C#N | – | 32.7 | –
61 | O=C(NCc1cccnc1)c1ccc(COc2ccccc2Br)o1 | > 100 µM (inactive) | 46.2 | –
62 | Cc1cnc(NC(=O)Cc2c[nH]c3ccccc23)s1 | > 100 µM (inactive) | – | –
63 | O=C(Nc1ccn(Cc2ccc(Cl)cc2)n1)c1ccccc1 | – | > 100 | –
64 | Cc1ccc(C(=O)Nc2ccc3ncccc3c2)cc1 | > 100 µM (inactive) | – | –
65 | Fc1ccc(-n2cc(CNCCc3cccnc3)c(-c3ccccc3Cl)n2)cc1 | > 100 µM (inactive) | 27.8 | –
66 | Cc1cccc(OCCC(=O)N(C)CC(=O)Nc2cccc3ccccc23)c1 | > 100 µM (inactive) | – | –

Row | SMILES | AC50 | AC50 [1] [µM] | AC50 (measured here: total growth OD600, test 2) [µM]
67 | C[C@@H]1CN([C@@H](C)CO)C(=O)CCCn2nncc2CO[C@H]1CN(C)C(=O)Nc1cccc(C(F)(F)F)c1 | > 100 µM (inactive) | – | –
68 | O=C(Nc1ccc(S(=O)(=O)N2CCCC2)cc1)c1ccc(OCC2CCCO2)cc1 (centres undefined) | > 100 µM (inactive) | – | –
69 | C=CCn1c(SCc2n[nH]c(=S)n2-c2ccccc2)nnc1-c1ccccc1 | > 100 µM (inactive) | – | –
70 | S=C1SCN(Cc2cccnc2)CN1Cc1cccnc1 | – | > 100 | –
71 | c1ccc(-n2c(SCc3nc(-c4cccs4)no3)nnc2-c2ccco2)cc1 | > 100 µM (inactive) | 42.5 | –
72 | CCc1ccc2nc(SCC(=O)Nc3ccccc3N3CCOCC3)c(C#N)cc2c1 | – | > 100 | –
73 | C=CCn1c(-c2sc(-c3ccccc3)nc2C)n[nH]c1=S | > 100 µM (inactive) | – | –
74 | CCN(CC)S(=O)(=O)c1ccc(O)c(C(=O)OCC(=O)NC23CC4CC(CC(C4)C2)C3)c1 | > 100 µM (inactive) | > 100 | –
75 | COc1ccccc1Cn1c(=S)[nH]c2ccccc2c1=O | > 100 µM (inactive) | – | –
76 | COc1ccc(C(=O)C2CCCN(C(=O)c3noc4c3CCCC4)C2)cc1F (centres undefined) | > 100 µM (inactive) | – | –
77 | CC(C)Cc1nnc(NS(=O)(=O)c2ccccc2)s1 | > 100 µM (inactive) | – | –
78 | O=C(CN1CCN(S(=O)(=O)c2ccc(Cl)cc2)CC1)Nc1ccc2c(c1)CCC2 | – | > 100 | –
79 | COc1ccc(-c2cn3c(C)c(C(=O)Nc4cccc(C)n4)sc3n2)cc1 | > 100 µM (inactive) | – | –
80 | O=C(Nc1ccc2c(c1)OCO2)c1cc(-c2ccncc2)nc2ccccc12 | > 100 µM (inactive) | – | –
81 | COc1ccc(CNC(=O)CSCc2c(F)cccc2Cl)cc1 | – | > 100 | –
82 | C=CCN(CC=C)C(=O)c1ccc2nc(Cc3ccc(OC)c(OC)c3)oc2c1 | > 100 µM (inactive) | > 100 | –
83 | Cc1ccc2oc(C(=O)N(CCO)Cc3ccccc3)c(C)c2c1 | > 100 µM (inactive) | 32.4 | –
84 | Cc1cc(C(=O)COC(=O)c2ccc(O)cc2)c(C)n1CC(F)(F)F | – | > 100 | –
85 | O=C(NCc1ccc2c(c1)OCO2)c1sccc1Br | > 100 µM (inactive) | – | –
86 | COc1cc2c(cc1OC)CN(c1ccc([N+](=O)[O-])c(C(F)(F)F)c1)CC2 | > 100 µM (inactive) | – | > 100
